Key:
Assay type in all cases: functional
[1] = test system: Spodoptera litura; experiment: Growth regulating activity of Spodoptera litura assessed as pupal time at 0.5 ug/cm'2 of castor leaf area after 24 hr
[2] = test system: Spodoptera litura; experiment: Growth regulating activity of Spodoptera litura assessed as fifth-instar time at 0.5 ug/cm'2 of castor leaf area after 24 hr
[3] = test system: Spodoptera litura; experiment: Growth regulating activity of Spodoptera litura assessed as third-instar time at 0.5 ug/cm'2 of castor leaf area after 24 hr
[4] = test system: Spodoptera litura; experiment: Antifeedant activity against Spodoptera litura at 1 ug/cm'2 of castor leaf area relative to control
[5] = test system: Spodoptera litura; experiment: Antifeedant activity against Spodoptera litura at 0.5 ug/cm'2 of castor leaf area relative to control
[6] = test system: Spodoptera litura; experiment: Growth regulating activity of Spodoptera litura assessed as sixth-instar time at 0.5 ug/cm'2 of castor leaf area after 24 hr
[7] = test system: Spodoptera litura; experiment: Insecticidal activity against Spodoptera litura assessed as pupal mortality at 0.5 ug/cm'2 of castor leaf area after 24 hr
[8] = test system: Spodoptera litura; experiment: Growth regulating activity of Spodoptera litura assessed as fourth-instar time at 0.5 ug/cm'2 of castor leaf area after 24 hr
[9] = test system: Spodoptera litura; experiment: Antifeedant activity against Spodoptera litura at 5 ug/cm'2 of castor leaf area relative to control
[10] = test system: Spodoptera litura; experiment: Growth regulating activity of Spodoptera litura assessed as total larval time at 0.5 ug/cm'2 of castor leaf area after 24 hr

| SMILES | Time [1] | Time [2] | Time [3] | Activity [4] | Activity [5] | Time [6] | Activity [7] | Time [8] | Activity [9] | Time [10] |
| --- | --- | --- | --- | --- | --- | --- | --- | --- | --- | --- |
| C/C=C(\C)C(=O)O[C@H]1C[C@@H](OC(C)=O)[C@@]2(C(=O)OC)CO[C@H]3[C@@H](O)[C@@](C)([C@]45O[C@@]4(C)[C@@H]4C[C@H]5O[C@@H]5OC=C[C@@]54O)[C@H]4[C@]1(CO[C@]4(O)C(=O)OC)[C@@H]32 [AZADIRACHTIN A] | 9.3 days | 3.3 days | 3.2 days | 94.8% | 91.6% | 5.4 days | 62.5% | 4.1 days | 95.4% | 16.1 days |
| CC1=CC(=O)[C@@H](O)[C@@]2(C)[C@H]1[C@@H](O)[C@H]1OC(=O)C[C@]3(O)[C@]14CO[C@@]3(C)[C@@H](O)[C@H](O)[C@H]24 [INDAQUASSIN C] | 8.5 days | 3.4 days | 2.3 days | 48.9% | 47.6% | 4.9 days | 10.5% | 3.8 days | 62.5% | 14.2 days |
| CC1=CC(=O)[C@@]2(C)C1=CC(=O)[C@@]13CO[C@]4(C)[C@@H](OC(=O)[C@@H]41)[C@H](O)[C@H]23 [SAMADERINS A] | 8.8 days | 3.6 days | 2.9 days | 16.2% | 18.9% | 4.8 days | 7.4% | 3.6 days | 21.1% | 15.1 days |
| CC1=CC(=O)[C@@H](O)[C@@]2(C)[C@H]1CC(=O)[C@@]13CO[C@]4(C)[C@@H](OC(=O)[C@@H]41)[C@H](O)[C@@H]32 [SAMADERINS B] | 9.3 days | 3.4 days | 3.1 days | 25.9% | 16.3% | 5.1 days | 37.5% | 3.8 days | 63.1% | 15.6 days |
| CC1=C[C@H](O)[C@@H](O)[C@@]2(C)[C@H]1CC(=O)[C@@]13CO[C@]4(C)[C@@H](OC(=O)[C@@H]41)[C@H](O)[C@@H]32 [SAMADERINS C] | 9.7 days | 3.8 days | 2.7 days | 16.1% | 15% | 4.4 days | 54.1% | 4.4 days | 55.3% | 15.3 days |

Source: ChEMBL document CHEMBL3044939, “Insect antifeedant and growth regulating activities of quassinoids from Samadera indica” (2001)
